Data reported in paper PMC8308585, “Design and Synthesis of Novel Thiazolo[5,4-d]pyrimidine Derivatives with High Affinity for Both the Adenosine A1 and A2A Receptors, and Efficacy in Animal Models of Depression” (Pharmaceuticals, 2021).
Read-outs that look alike come from different tables or passages of the source.

Experiments:
human A1 AR = biological target: T1, human A1 AR (Homo sapiens, UniProt P30542); assay: Radioligand binding, displacement of [3H]-CCPA at hA1 AR in CHO cells; conditions: displacement of specific [3H]-CCPA binding, n = 3–6, mean ± SEM
T1 construct: expressed in transfected cells; host or cells: CHO cells
T1 sequence (P30542 1-326): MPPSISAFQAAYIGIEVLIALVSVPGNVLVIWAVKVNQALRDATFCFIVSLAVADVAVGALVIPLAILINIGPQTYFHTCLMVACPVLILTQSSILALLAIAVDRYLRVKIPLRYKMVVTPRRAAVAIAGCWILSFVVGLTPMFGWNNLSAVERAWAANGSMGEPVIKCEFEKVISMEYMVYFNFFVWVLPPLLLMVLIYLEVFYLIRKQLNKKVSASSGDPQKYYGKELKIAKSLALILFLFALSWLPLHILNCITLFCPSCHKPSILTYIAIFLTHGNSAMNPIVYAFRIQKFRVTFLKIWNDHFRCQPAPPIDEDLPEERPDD
Description: (§2) CHO cells, stably expressing hARs, were grown adherently and maintained in Dulbecco’s modified Eagle’s medium (DMEM) with nutrient mixture F12 supplemented with 10% fetal bovine serum (FBS), penicillin (100 µg/mL), streptomycin (100 µg/mL), sodium pyruvate (1 mM), and geneticin (0.1 mg/mL).
(§3) Briefly, cells were homogenized in cold lysis buffer (5 mM Tris HCl, 2 mM EDTA, pH 7.4), centrifuged at low speed spin for 10 min, and subsequently, the supernatant was spun at 37,000 rpm. Membrane pellet was resuspended in the specific buffer and stored at −80 °C.

hA3 AR = biological target: T2, hA3 AR (Homo sapiens, UniProt P0DMS8); assay: Radioligand binding, displacement of [3H]-HEMADO at hA3 AR in CHO cells; conditions: displacement of specific [3H]-HEMADO binding, mean ± SEM
T2 construct: expressed in transfected cells; host or cells: CHO cells
T2 sequence (P0DMS8 1-318): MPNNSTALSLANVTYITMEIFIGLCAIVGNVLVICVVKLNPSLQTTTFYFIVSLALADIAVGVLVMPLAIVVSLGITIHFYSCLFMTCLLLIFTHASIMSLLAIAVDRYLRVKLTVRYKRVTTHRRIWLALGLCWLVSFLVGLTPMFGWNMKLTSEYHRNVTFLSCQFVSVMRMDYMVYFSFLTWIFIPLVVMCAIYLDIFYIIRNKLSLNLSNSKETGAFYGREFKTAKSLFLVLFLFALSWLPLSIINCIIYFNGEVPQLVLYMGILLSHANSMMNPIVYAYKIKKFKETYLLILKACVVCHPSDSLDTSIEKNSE
Description: as §2, §3

hA2B AR = biological target: T3, hA2B AR (Homo sapiens, UniProt P29275); assay: Inhibition of NECA-stimulated adenylyl cyclase activity (cAMP) in CHO cells expressing hA2B AR; assay type: cell-based; conditions: mean ± SEM
T3 construct: expressed in transfected cells; host or cells: CHO cells
T3 sequence (P29275 1-332): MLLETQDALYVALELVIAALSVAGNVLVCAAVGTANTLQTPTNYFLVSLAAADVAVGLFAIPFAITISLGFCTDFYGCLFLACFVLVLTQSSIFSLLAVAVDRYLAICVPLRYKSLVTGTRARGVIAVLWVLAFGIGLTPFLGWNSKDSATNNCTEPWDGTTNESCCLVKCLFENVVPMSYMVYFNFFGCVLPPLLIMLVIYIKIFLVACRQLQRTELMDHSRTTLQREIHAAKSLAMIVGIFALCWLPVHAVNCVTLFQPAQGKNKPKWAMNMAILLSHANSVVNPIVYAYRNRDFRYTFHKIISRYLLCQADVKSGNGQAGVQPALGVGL
Description: Compounds 1–19 were evaluated for their binding affinity at hA1, hA2A, and hA3 ARs, stably transfected in Chinese hamster ovary (CHO) cells. […].
The binding affinity of the novel compounds was evaluated using radioligand competition experiments in CHO cells stably transfected with hA1 AR, hA2A AR, and hA3 AR subtypes. […]; The potency at hA2B AR, expressed on CHO cells, was determined by inhibition of NECA-stimulated adenylyl cyclase activity. […]
(§1) Binding data and concentration–response curves were fitted by a nonlinear regression with the Prism program (GraphPAD Prism 7 Software, San Diego, CA, USA). Each concentration was tested 3–5 times in duplicate and the Ki or IC50 (the concentration of antagonists that produces 50% inhibition of the agonist effect) values are given as the mean ± standard error (S.E.).

human A2A AR = biological target: T4, human A2A AR (Homo sapiens, UniProt P29274); assay: Radioligand binding, displacement of [3H]-NECA at hA2A AR in CHO cells;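 further: competition binding on membranes from CHO cells stably transfected with human A2A receptor, binding curves fitted by nonlinear regression in GraphPad Prism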
T4 construct: expressed in transfected cells; host or cells: CHO cells
T4 sequence (P29274 whole entry): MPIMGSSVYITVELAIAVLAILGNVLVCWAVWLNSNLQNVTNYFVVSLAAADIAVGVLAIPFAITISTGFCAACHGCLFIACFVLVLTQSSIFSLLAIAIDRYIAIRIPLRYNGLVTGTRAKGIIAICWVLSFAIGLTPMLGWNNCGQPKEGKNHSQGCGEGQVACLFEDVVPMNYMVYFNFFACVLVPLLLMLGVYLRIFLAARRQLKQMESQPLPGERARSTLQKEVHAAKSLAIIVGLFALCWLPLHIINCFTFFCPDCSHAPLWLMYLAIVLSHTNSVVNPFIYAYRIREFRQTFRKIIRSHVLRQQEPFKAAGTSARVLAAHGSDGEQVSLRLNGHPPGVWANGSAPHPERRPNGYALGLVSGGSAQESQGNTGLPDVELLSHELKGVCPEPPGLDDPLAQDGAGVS
Description: as §2, §3

hA2A AR = biological target: T5, hA2A AR (Homo sapiens, UniProt P29274); assay: Inhibition of NECA-induced increase of cAMP in CHO cells expressing hA2A AR (GloSensor cAMP assay); assay type: cell-based; conditions: inhibition of NECA-stimulated adenylyl cyclase activity, mean ± standard error
T5 construct: expressed in transfected cells; host or cells: CHO cells
T5 sequence (P29274 whole entry): as above
Description: Compound 18 was also tested to evaluate its antagonist behavior at the hA1 AR by assessing its ability to counteract NECA-induced decrease of cAMP accumulation.
The intrinsic activity of understudy compounds was evaluated through the GloSensor cAMP assay, as described previously. Briefly, cells stably expressing the hA1, hA2A, and hA2B ARs and the biosensor were incubated for 2 h at rt in equilibration medium containing 3% v/v GloSensor cAMP reagent stock solution, 10% FBS, and 87% CO2 independent medium. Afterward, cells were dispensed in the wells of a 384-well plate and the reference agonist NECA or the compounds, at different concentrations, were tested. The antagonist profile of compounds was evaluated by assessing their ability to counteract NECA-induced increase (A2A and A2B ARs) or decrease (A1 AR) of cAMP accumulation. Responses were expressed as percentage of the maximal relative luminescence units (RLU).
as §1

[1] = displacement of specific [3H]-NECA binding, CHO cells, mean ± SEM, read-out: hA2A Ki
[2] = hA2A AR, as listed in Table 3, read-out: pKi A2A (converted)

SMILES	Ki (human A1 AR) [nM]	Ki (hA3 AR) [nM]	IC50 (hA2B AR) [nM]	Ki (human A2A AR; [1]) [nM]	Ki (human A2A AR; [2]) [nM]	IC50 (hA2A AR) [nM]
Nc1nc(-c2ccccc2)nc2sc(Cc3ccccc3)nc12 [compound 1, 2-Benzyl-5-phenylthiazolo[5,4-d]pyrimidin-7-amine]	20 ± 4.3	26.6 ± 6	> 30000	2.9 ± 0.04	2.82	–
N#Cc1cccc(-c2nc(N)c3nc(Cc4ccccc4)sc3n2)c1 [compound 2, 3-(7-Amino-2-benzylthiazolo[5,4-d]pyrimidin-5-yl)benzonitrile]	51.7 ± 11.7	76 ± 0.9	> 30000	4.6 ± 0.9	–	–
Nc1nc(-c2cccc(O)c2)nc2sc(Cc3ccccc3)nc12 [compound 3, 3-(7-Amino-2-benzylthiazolo[5,4-d]pyrimidin-5-yl)phenol]	15.7 ± 3.4	104 ± 21.1	> 30000	7.3 ± 1	–	–
Nc1nc(-c2ccco2)nc2sc(Cc3ccccc3)nc12 [compound 4, 2-Benzyl-5-(furan-2-yl)thiazolo[5,4-d]pyrimidin-7-amine]	15.5 ± 3.6	65.4 ± 12	794 ± 196	1.1 ± 0.2	1.1	–
Cc1ccc(-c2nc(N)c3nc(Cc4ccccc4)sc3n2)o1 [compound 5, 2-Benzyl-5-(5-methylfuran-2-yl)thiazolo[5,4-d]pyrimidin-7-amine]	6.8 ± 1.2	18.8 ± 1.9	1100 ± 228	0.8 ± 0.04	0.794	88 ± 21
Nc1nc(-c2ccccc2)nc2sc(Cc3ccccc3Cl)nc12 [compound 6, 2-(2-Chlorobenzyl)-5-phenylthiazolo[5,4-d]pyrimidin-7-amine]	2.8 ± 0.05	143 ± 0.2	> 30000	0.4 ± 0.04	0.398	–
N#Cc1cccc(-c2nc(N)c3nc(Cc4ccccc4Cl)sc3n2)c1 [compound 7, 3-(7-Amino-2-(2-chlorobenzyl)thiazolo[5,4-d]pyrimidin-5-yl)benzonitrile]	72.8 ± 15	295.1 ± 0.6	6785 ± 62	6.3 ± 0.18	–	–
Nc1nc(-c2ccco2)nc2sc(Cc3ccccc3Cl)nc12 [compound 8, 2-(2-Chlorobenzyl)-5-(furan-2-yl)thiazolo[5,4-d]pyrimidin-7-amine]	3.8 ± 0.6	4786 ± 5.1	1890 ± 175	0.2 ± 0.03	0.2	39 ± 9
Cc1ccc(-c2nc(N)c3nc(Cc4ccccc4Cl)sc3n2)o1 [compound 9, 2-(2-Chlorobenzyl)-5-(5-methylfuran-2-yl)thiazolo[5,4-d]pyrimidin-7-amine]	0.5 ± 0.1	8.5 ± 1.6	8850 ± 1450	0.07 ± 0.006	0.0708	7.7 ± 1.3
COc1ccccc1Cc1nc2c(N)nc(-c3ccccc3)nc2s1 [compound 10, 2-(2-Methoxybenzyl)-5-phenylthiazolo[5,4-d]pyrimidin-7-amine]	4.5 ± 0.8	37.4 ± 1	> 30000	0.7 ± 0.1	–	125 ± 33

Continued, values first:

Ki (human A1 AR) [nM]	Ki (hA3 AR) [nM]	IC50 (hA2B AR) [nM]	Ki (human A2A AR; [1]) [nM]	Ki (human A2A AR; [2]) [nM]	IC50 (hA2A AR) [nM]	SMILES
28.4 ± 4	54.2 ± 1.2	1540 ± 35	2.4 ± 0.09	–	–	COc1ccccc1Cc1nc2c(N)nc(-c3cccc(C#N)c3)nc2s1 [compound 11, 3-(7-Amino-2-(2-methoxybenzyl)thiazolo[5,4-d]pyrimidin-5-yl)benzonitrile]
10.2 ± 0.3	79.6 ± 2.3	7420 ± 876	1.9 ± 0.4	–	–	COc1ccccc1Cc1nc2c(N)nc(-c3cccc(O)c3)nc2s1 [compound 12, 3-(7-Amino-2-(2-methoxybenzyl)thiazolo[5,4-d]pyrimidin-5-yl)phenol]
2.4 ± 0.1	48.6 ± 2.4	1540 ± 35	0.2 ± 0.03	–	35 ± 8.5	COc1ccccc1Cc1nc2c(N)nc(-c3ccco3)nc2s1 [compound 13, 5-(Furan-2-yl)-2-(2-methoxybenzyl)thiazolo[5,4-d]pyrimidin-7-amine]
11.5 ± 2.8	18.2 ± 5	2420 ± 545	2 ± 0.6	–	–	COc1ccccc1Cc1nc2c(N)nc(-c3ccc(C)o3)nc2s1 [compound 14, 2-(2-Methoxybenzyl)-5-(5-methylfuran-2-yl)thiazolo[5,4-d]pyrimidin-7-amine]
1.9 ± 0.05	72.1 ± 5.3	> 30000	1.8 ± 0.6	1.78	–	Nc1nc(-c2ccccc2)nc2sc(Cc3ccccc3F)nc12 [compound 15, 2-(2-Fluorobenzyl)-5-phenylthiazolo[5,4-d]pyrimidin-7-amine]
21.5 ± 5.1	95.5 ± 1.5	1510 ± 121	1.4 ± 0.3	–	–	N#Cc1cccc(-c2nc(N)c3nc(Cc4ccccc4F)sc3n2)c1 [compound 16, 3-(7-Amino-2-(2-fluorobenzyl)thiazolo[5,4-d]pyrimidin-5-yl)benzonitrile]
0.5 ± 0.1	456 ± 15	3240 ± 136	–	–	–	Nc1nc(-c2cccc(O)c2)nc2sc(Cc3ccccc3F)nc12 [compound 17, 3-(7-Amino-2-(2-fluorobenzyl)thiazolo[5,4-d]pyrimidin-5-yl)phenol]
5.7 ± 0.2	50.2 ± 9.2	1690 ± 228	0.26 ± 0.01	0.257	51 ± 12	Cc1ccc(-c2nc(N)c3nc(Cc4ccccc4F)sc3n2)o1 [compound 19, 2-(2-Fluorobenzyl)-5-(5-methylfuran-2-yl)thiazolo[5,4-d]pyrimidin-7-amine]
